Assay results published in article PMC9695012, “Diastereoselective Synthesis of Novel Spiro-Phosphacoumarins and Evaluation of Their Anti-Cancer Activity” (International Journal of Molecular Sciences, 2022).

Legend:
HuTu 80 cells [1] = assay: Mitochondrial membrane potential, JC-10 flow cytometry; format: cell-based, human; conditions: IC50/2 and IC50, more pronounced at IC50/2
Procedure: The possibility of apoptosis through the mitochondrial pathway was assessed by flow cytometry using the JC-10 fluorescent dye (in the Mitochondria Membrane Potential Kit). In normal cells with a high membrane potential, JC-10 accumulates in the mitochondrial matrix, where it forms aggregates with a red fluorescence. However, in apoptotic cells, a decrease in the membrane potential occurs. JC-10 diffuses from mitochondria and turns into a monomeric form, emitting a green fluorescence, which is recorded by a flow cytometer (Figure 4). […] As in the experiment with V-Alexa Fluor 647, the cytotoxic effect of compound 2a was more pronounced at IC50/2 concentration.
Cells were harvested at 2000 rpm for 5 min and then washed twice with ice-cold PBS, followed by resuspension in JC-10 (10 µg/mL) and incubation at 37 °C for 10 min. After the cells were rinsed three times and suspended in PBS, the JC-10 fluorescence was observed by flow cytometry (Guava easy Cyte, MERCK, Rahway, NJ, USA).

HuTu 80 cells [2] = assay: Cell cycle analysis by flow cytometry; format: cell-based, human; conditions: 24 h; for cells in G1/G0 phase: control 77%
Procedure: Taking into account the high potency and selectivity of the compound 2a, some additional experiments were carried out to study in more details its anti-cancer action. The mechanism of action of cytotoxic agents is often associated with cell cycle arrest, which leads to a slowing down of cell proliferation. So, we have performed a cell cycle analysis for the HuTu 80 cells using flow cytometry. […] Meanwhile, the proportion of cells in S phase decreased almost by half (8.2% vs. 4.7%).

HuTu 80 cells [3] = assay: Intracellular ROS, CellROX Deep Red flow cytometry; format: cell-based, human; conditions: for CellROX Deep Red fluorescence intensity (ROS production): control 700
Description: An increase in the production of reactive oxygen species (ROS) by compounds also characterizes the development of apoptosis along the mitochondrial pathway. Mitochondria are a potential source and target of ROS. ROS leads to dysfunction of the mitochondria and, consequently, to irreversible cell damage. In this regard, the effect of the lead compound 2a in HuTu 80 cells on ROS production was investigated using a flow cytometry assay and the CellROX® Deep Red flow cytometry kit. The data presented in Figure 6 show a significant increase in CellROX® Deep Red fluorescence intensity dominated by IC50/2.
HuTu 80 cells were incubated with compound 2a at concentrations of IC50 for 24 h. ROS generation was investigated using flow cytometry assay and CellROX® Deep Red flow cytometry kit. For this HuTu 80 cells were harvested at 2000 rpm for 5 min and then washed twice with ice-cold PBS, followed by resuspension in 0.1 mL of medium without FBS, to which was added 0.2 μL of CellROX® Deep Red and incubated at 37 °C for 30 min After being washed three times, the cells were suspended in PBS, and the production of ROS in the cells was immediately monitored using a flow cytometer Guava easy Cyte, MERCK, Rahway, NJ, USA).

MCF-7 = assay: cells; format: cell-based, human; conditions: for IC50: Homo sapiens, MCF7, MTT, cancer cell line, three independent experiments; for SI, MCF-7: selectivity index vs Chang liver normal cells, ns = no selectivity
Chang Liver [4] = assay: cells; conditions: Homo sapiens, read-out: IC50, Chang Liver
Chang Liver [5] = conditions: relative to 5-fluorouracil
M-HeLa = assay: cells; format: cell-based, human; conditions: for IC50: Homo sapiens, M-HeLa, MTT, cancer cell line, three independent experiments; for SI, M-HeLa: selectivity index vs Chang liver normal cells, ns = no selectivity
HuTu 80 cells [6] = assay: Apoptosis induction, annexin V-Alexa Fluor 647 / propidium iodide flow cytometry; format: cell-based, human; conditions: 24-h incubation, most active at IC50/2 (12.5 µM), early apoptosis stage
Procedure: Cell Culture. HuTu 80 cells at 1 × 10^6 cells/well in a final volume of 2 mL were seeded into six-well plates. After 24 h of incubation, various concentrations of compound 2a were added to wells.
Cell Apoptosis Analysis. The cells were harvested at 2000 rpm for 5 min and then washed twice with ice-cold PBS, followed by resuspension in binding buffer. Next, the samples were incubated with 5 μL of annexin V- Alexa Fluor 647 (Sigma-Aldrich, St. Louis, MO, USA) and 5 μL of propidium iodide for 15 min at room temperature in the dark. Finally, the cells were analyzed by flow cytometry (Guava easy Cyte, MERCK, Rahway, NJ, USA) within 1 h. The experiments were repeated three times.

HuTu 80 [7] = conditions: for SI, HuTu 80: selectivity index vs Chang liver normal cells, ns = no selectivity
HuTu 80 [8] = assay: cells; conditions: Homo sapiens, HuTu80, read-out: IC50, HuTu 80
Solubility in water = format: physicochemical; conditions: in words; reason for exclusion from cytotoxicity studies

SMILES | melting point | IC50 (MCF-7) | IC50 (Chang Liver [4]) | IC50 (M-HeLa) | SI, M-HeLa (M-HeLa) | SI, HuTu 80 (HuTu 80 [7]) | IC50 (HuTu 80 [8]) | SI, MCF-7 (MCF-7) | also measured
CN1c2c(c(=O)oc3ccccc23)CC12C(=O)c1ccccc1C2=O | > 300 °C | – | – | – | – | – | – | – | –
Cc1cc(C)c2c(c1C)OP(=O)(O)[C@@H]1CN(C)C3(C(=O)c4ccccc4C3=O)[C@H]21 [2a, (3aS,9bS)-4-hydroxy-2,6,7,9-tetramethyl-2,3,3a,9b-tetrahydrospiro[benzo [5,6][1,2]oxaphosphinino [3,4-c]pyrrole-1,2’-indene]-1’,3’-dione 4-oxide] | > 300 °C | 82.3 ± 7.5 µM | > 800 µM | 52.6 ± 4.1 µM | >15 | >32 | 25.1 ± 1.9 µM | – | effect on mitochondrial membrane potential (in words) (HuTu 80 cells [1]): significant decrease; effect on cell cycle (in words) (HuTu 80 cells [2]; 12.5 and 25 µM): induces G0/G1 phase arrest; cells in S phase (HuTu 80 cells [2]; IC50 (25 µM), control 8.2%): 4.7%; cells in G1/G0 phase (HuTu 80 cells [2]; IC50 (25 µM)): 81.0%; cells in G1/G0 phase (HuTu 80 cells [2]; IC50/2 (12.5 µM)): 79.0%; CellROX Deep Red fluorescence intensity (ROS production) (HuTu 80 cells [3]; IC50 (25 µM)): 1500; CellROX Deep Red fluorescence intensity (ROS production) (HuTu 80 cells [3]; IC50/2 (12.5 µM)): 2000; effect on ROS production (in words) (HuTu 80 cells [3]; IC50/2 and IC50, dominated by IC50/2): increase in ROS production; cytotoxicity against Chang liver normal cell line, fold lower than reference compound (Chang Liver [5]): more than 10 fold; induction of apoptosis (in words) (HuTu 80 cells [6]): begins to induce apoptosis; cytotoxicity against HuTu 80 cell line, fold higher than reference 5-fluorouracil (HuTu 80 [7]; relative to 5-fluorouracil): ~2.6 fold
COc1ccc2c(c1)OP(=O)(O)[C@@H]1CN(C)C3(C(=O)c4ccccc4C3=O)[C@H]21 [2b, (3aS,9bS)-4-hydroxy-7-methoxy-2-methyl-2,3,3a,9b-tetrahydrospiro[benzo [5,6][1,2]oxaphosphinino [3,4-c]pyrrole-1,2’-indene]-1’,3’-dione 4-oxide] | – | > 100 µM | 62 ± 5.5 µM | 59.7 ± 4.6 µM | 1 | 1.2 | 53.4 ± 4.2 µM | ns | –
CN1C[C@@H]2[C@@H](c3c(O)c(Cl)cc(Cl)c3OP2(=O)O)C12C(=O)c1ccccc1C2=O [2c, (3aS,9bS)-6,8-dichloro-4,9-dihydroxy-2-methyl-2,3,3a,9b-tetrahydrospiro[benzo [5,6][1,2]oxaphosphinino [3,4-c]pyrrole-1,2’-indene]-1’,3’-dione 4-oxide] | > 300 °C | 77.6 ± 6.2 µM | > 100 µM | > 100 µM | ns | ns | 100 ± 8.4 µM | ns | –
CN1C[C@@H]2[C@@H](c3ccc4ccccc4c3OP2(=O)O)C12C(=O)c1ccccc1C2=O [2d, (3a’S,11a’S)-11’-hydroxy-2’-methyl-1’,2’,3a’,11a’-tetrahydrospiro[indene-2,3’-naphtho [2’,1’:5,6][1,2]oxaphosphinino [3,4-c]pyrrole]-1,3-dione 11’-oxide] | > 300 °C | 92.2 ± 8.3 µM | 57 ± 4.3 µM | 60 ± 5.4 µM | ns | ns | 82.6 ± 7.6 µM | ns | –
Cc1cc(C)c2c(c1C)OP(=O)(O)[C@@H]1[C@H]3CCCN3C3(C(=O)c4ccccc4C3=O)[C@H]21 [2e, (6aS,6bR,11aS)-6-hydroxy-1,3,4-trimethyl-6a,6b,7,8,9,11a-hexahydrospiro[benzo [5,6][1,2]oxaphosphinino [3,4-a]pyrrolizine-11,2’-indene]-1’,3’-dione 6-oxide] | > 300 °C | > 100 µM | > 100 µM | > 100 µM | ns | ns | > 100 µM | ns | –
O=C1c2ccccc2C(=O)C12[C@@H]1c3ccc4ccccc4c3OP(=O)(O)[C@@H]1[C@H]1CCCN12 [2f, (8a’S,8b’R,13a’S)-8’-hydroxy-8a’,8b’,9’,10’,11’,13a’-hexahydrospiro[indene-2,13’-naphtho [2’,1’:5,6][1,2]oxaphosphinino [3,4-a]pyrrolizine]-1,3-dione 8’-oxide] | > 300 °C | – | – | – | – | – | – | – | solubility in water (Solubility in water): extremely low
O=C1c2ccccc2C(=O)C12[C@@H]1c3ccc4cc(Br)ccc4c3OP(=O)(O)[C@@H]1[C@H]1CCCN12 [2g, (8a’S,8b’R,13a’S)-4’-bromo-8’-hydroxy-8a’,8b’,9’,10’,11’,13a’-hexahydrospiro[indene-2,13’-naphtho [2’,1’:5,6][1,2]oxaphosphinino [3,4-a]pyrrolizine]-1,3-dione 8’-oxide] | > 300 °C | – | – | – | – | – | – | – | solubility in water (Solubility in water): extremely low
O=c1[nH]cc(F)c(=O)[nH]1 [5-fluorouracil, reference compound] | – | 16.7 ± 1.3 µM | – | 62 ± 4.7 µM | 1.4 | 1.3 | 65.2 ± 5.6 µM | 5 | –
